Assay results taken from ChEMBL document CHEMBL5465560, “Selectivity Literature for EUbOPEN Chemogenomic Library” (2024).

What was measured:
[1] = target: Dual specificity mitogen-activated protein kinase kinase 2 (Homo sapiens) (UniProt P36507); assay: Selectivity interaction (KinomeScan (DiscoverX)) EUB0001049a MAP2K2; details: at 1 µM
[2] = target: T1, Serine/threonine-protein kinase D3 (Homo sapiens) (UniProt O94806); assay: Selectivity interaction (KinomeScan (DiscoverX)) EUB0001049a PRKD3; details: at 1 µM
T1 sequence (whole entry): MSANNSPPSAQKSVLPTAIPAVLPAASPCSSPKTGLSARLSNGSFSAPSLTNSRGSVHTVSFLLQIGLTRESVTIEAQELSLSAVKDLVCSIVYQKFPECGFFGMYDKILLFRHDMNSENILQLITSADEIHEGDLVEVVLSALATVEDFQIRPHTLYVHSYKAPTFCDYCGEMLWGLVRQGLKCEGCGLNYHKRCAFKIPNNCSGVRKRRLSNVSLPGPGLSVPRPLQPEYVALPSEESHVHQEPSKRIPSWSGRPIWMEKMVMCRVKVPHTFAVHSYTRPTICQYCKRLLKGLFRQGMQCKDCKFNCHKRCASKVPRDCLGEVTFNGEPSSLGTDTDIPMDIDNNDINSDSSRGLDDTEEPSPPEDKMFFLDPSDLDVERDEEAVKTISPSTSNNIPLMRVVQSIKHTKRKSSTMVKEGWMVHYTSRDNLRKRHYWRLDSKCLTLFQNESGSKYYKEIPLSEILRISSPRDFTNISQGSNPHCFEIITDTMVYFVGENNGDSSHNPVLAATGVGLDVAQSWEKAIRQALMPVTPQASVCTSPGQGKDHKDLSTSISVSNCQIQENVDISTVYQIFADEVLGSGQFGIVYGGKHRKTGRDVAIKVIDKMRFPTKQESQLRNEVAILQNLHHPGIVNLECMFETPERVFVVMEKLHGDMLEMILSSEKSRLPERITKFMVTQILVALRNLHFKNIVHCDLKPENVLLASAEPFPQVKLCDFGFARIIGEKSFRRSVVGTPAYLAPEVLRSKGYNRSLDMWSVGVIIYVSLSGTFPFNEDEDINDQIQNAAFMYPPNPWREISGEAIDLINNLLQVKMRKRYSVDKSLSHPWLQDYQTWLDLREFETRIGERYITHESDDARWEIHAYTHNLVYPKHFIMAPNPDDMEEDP

[3] = target: Mitogen-activated protein kinase kinase kinase 11 (Homo sapiens) (UniProt Q16584); assay: Selectivity interaction (KinomeScan (DiscoverX)) EUB0000229b MAP3K11; details: at 10 µM
[4] = target: Cholecystokinin receptor type A (Homo sapiens) (UniProt P32238); assay: Selectivity interaction (Eurofins CEREP Diversity Profile (receptors and ion channels)) EUB0000279b CCKAR; details: at 10 µM
[5] = target: Casein kinase I isoform gamma-2 (Homo sapiens) (UniProt P78368); assay: Selectivity interaction (KinomeScan (DiscoverX)) EUB0001079a CSNK1G2; details: at 1 µM
[6] = test system: Epidermal growth factor receptor (Homo sapiens), P00533 [UNDEFINED MUTATION]; assay: Selectivity interaction (KinomeScan (DiscoverX)) EUB0001079a EGFR; details: at 1 µM
[7] = target: Tyrosine-protein kinase BTK (Homo sapiens, UniProt Q06187); assay: Selectivity interaction (ActivX KiNativ screen (kinase selectivity in THP-1 cell lysates)) EUB0000639a BTK; format: subcellular; details: lysate, at 0.2 µM
[8] = target: DNA-dependent protein kinase catalytic subunit (Homo sapiens) (UniProt P78527); assay: Selectivity interaction (Kinase panel (Invitrogen)) EUB0000639a PRKDC; details: at 200 nM
[9] = target: Protein kinase C theta type (Homo sapiens, UniProt Q04759); assay: Selectivity interaction (KinomeScan (DiscoverX)) EUB0000595a PRKCQ; details: at 10 µM
[10] = target: T2, Cytoplasmic tyrosine-protein kinase BMX (Homo sapiens) (UniProt P51813); assay: Selectivity interaction (KinomeScan (DiscoverX)) EUB0000092b BMX; details: at 10 µM
T2 sequence (whole entry): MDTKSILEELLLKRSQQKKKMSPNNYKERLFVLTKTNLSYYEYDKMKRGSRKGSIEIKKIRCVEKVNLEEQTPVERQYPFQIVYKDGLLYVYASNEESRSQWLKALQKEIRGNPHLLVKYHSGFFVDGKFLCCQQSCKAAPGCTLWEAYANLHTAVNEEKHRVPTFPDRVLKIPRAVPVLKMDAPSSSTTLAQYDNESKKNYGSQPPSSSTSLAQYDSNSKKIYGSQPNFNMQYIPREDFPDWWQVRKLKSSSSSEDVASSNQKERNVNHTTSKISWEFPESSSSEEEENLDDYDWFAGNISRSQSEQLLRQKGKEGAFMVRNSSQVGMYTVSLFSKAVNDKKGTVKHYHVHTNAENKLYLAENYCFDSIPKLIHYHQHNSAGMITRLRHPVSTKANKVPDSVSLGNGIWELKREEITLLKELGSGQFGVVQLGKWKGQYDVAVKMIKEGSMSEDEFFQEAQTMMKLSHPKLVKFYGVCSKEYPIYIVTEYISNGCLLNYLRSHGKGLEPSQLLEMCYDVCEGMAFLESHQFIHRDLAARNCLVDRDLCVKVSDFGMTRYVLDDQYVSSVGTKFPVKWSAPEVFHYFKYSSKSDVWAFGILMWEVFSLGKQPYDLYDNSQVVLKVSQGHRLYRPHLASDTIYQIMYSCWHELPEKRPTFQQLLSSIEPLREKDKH

[11] = target: Vascular endothelial growth factor receptor 1 (Homo sapiens) (UniProt P17948); details: at 10 µM
[12] = target: T3, Serine/threonine-protein kinase 17A (Homo sapiens) (UniProt Q9UEE5); assay: Selectivity interaction (Upstate Kinase Profiler service (Millipore)) EUB0000056c STK17A; details: at 1 µM
T3 sequence (whole entry): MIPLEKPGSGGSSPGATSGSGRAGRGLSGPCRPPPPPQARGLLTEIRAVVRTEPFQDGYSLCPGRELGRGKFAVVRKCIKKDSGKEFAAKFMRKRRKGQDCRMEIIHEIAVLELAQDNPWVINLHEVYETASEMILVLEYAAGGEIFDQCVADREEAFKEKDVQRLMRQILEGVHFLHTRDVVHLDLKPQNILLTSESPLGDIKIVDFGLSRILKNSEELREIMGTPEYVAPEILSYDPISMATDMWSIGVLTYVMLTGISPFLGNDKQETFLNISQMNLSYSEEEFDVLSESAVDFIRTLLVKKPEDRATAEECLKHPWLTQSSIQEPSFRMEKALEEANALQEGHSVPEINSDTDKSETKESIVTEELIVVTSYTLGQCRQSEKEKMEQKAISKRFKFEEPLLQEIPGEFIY

[13] = target: Activin receptor type-2B (Homo sapiens) (UniProt Q13705); assay: Selectivity interaction (KinomeScan (DiscoverX)) EUB0000655a ACVR2B; details: at 10 µM
SRSF protein kinase 1 = SRSF protein kinase 1 (Homo sapiens, UniProt Q96SB4); assay: Selectivity interaction (Kinase panel (Z-LYTE Assay)) EUB0001632a SRPK1; details: at 10 µM
[14] = target: Tyrosine-protein kinase Fyn (Homo sapiens) (UniProt P06241); assay: Selectivity interaction (ProQinase) EUB0000171b FYN
Sequence of Tyrosine-protein kinase Fyn (Homo sapiens) (P06241 2-537 limits assumed): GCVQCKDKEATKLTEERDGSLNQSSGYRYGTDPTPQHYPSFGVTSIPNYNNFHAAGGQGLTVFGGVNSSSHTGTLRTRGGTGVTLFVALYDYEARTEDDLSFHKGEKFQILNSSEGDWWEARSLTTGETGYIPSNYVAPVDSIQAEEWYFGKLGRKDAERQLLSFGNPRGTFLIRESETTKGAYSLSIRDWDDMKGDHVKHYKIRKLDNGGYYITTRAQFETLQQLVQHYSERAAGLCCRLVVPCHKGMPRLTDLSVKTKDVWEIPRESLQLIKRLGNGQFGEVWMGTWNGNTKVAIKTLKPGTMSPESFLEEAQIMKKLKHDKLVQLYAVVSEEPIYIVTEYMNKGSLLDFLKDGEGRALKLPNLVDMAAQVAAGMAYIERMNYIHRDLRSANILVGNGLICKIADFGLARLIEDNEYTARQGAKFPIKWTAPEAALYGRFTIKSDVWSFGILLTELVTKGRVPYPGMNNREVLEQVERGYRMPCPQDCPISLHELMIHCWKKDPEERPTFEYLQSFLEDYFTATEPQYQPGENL

Sequence of Casein kinase I isoform gamma-2 (Homo sapiens) (P78368 whole entry, looked up, canonical isoform): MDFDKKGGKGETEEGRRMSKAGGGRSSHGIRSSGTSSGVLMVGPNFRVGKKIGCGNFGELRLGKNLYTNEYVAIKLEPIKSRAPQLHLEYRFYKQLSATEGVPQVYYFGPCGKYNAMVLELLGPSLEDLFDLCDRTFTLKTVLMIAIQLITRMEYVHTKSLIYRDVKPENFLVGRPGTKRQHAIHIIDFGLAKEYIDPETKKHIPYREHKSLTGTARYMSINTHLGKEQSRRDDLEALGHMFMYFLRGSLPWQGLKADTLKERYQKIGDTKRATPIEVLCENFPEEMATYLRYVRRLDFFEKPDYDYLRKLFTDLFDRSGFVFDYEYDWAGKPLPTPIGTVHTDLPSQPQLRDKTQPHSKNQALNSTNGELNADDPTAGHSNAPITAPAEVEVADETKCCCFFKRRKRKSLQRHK
Sequence of Epidermal growth factor receptor (Homo sapiens), P00533 [UNDEFINED MUTATION] (P00533 whole entry, looked up, change not shown): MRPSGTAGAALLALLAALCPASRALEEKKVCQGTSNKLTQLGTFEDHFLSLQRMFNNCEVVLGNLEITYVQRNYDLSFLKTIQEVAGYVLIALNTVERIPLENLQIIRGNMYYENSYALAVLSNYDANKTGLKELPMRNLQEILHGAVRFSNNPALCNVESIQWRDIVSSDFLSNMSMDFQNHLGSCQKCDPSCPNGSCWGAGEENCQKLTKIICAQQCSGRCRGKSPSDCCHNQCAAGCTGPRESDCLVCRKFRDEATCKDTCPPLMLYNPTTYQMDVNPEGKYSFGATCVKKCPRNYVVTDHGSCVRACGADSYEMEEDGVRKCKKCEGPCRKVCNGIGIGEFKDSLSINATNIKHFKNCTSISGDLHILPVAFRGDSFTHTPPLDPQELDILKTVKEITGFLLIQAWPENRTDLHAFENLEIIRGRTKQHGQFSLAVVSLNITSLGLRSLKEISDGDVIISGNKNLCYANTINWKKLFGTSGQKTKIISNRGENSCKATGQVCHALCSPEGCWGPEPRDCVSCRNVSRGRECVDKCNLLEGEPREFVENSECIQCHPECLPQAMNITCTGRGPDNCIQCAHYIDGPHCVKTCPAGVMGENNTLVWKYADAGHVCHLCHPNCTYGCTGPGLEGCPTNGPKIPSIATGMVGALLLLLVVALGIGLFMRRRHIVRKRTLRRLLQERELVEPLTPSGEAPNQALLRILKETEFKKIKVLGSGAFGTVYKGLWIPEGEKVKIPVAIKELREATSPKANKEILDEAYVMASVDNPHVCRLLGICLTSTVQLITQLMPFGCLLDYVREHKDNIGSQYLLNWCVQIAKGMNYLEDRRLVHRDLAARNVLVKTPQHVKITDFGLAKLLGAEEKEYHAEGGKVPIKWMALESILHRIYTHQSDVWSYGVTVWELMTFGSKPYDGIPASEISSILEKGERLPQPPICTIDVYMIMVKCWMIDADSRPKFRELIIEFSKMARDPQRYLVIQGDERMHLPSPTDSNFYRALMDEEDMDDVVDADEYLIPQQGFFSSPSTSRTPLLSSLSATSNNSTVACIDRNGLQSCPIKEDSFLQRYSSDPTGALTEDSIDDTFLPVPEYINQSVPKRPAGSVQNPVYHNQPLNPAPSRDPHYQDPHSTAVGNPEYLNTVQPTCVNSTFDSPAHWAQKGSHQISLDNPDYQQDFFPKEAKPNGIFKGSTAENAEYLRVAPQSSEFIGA
Sequence of SRSF protein kinase 1 (Q96SB4 whole entry): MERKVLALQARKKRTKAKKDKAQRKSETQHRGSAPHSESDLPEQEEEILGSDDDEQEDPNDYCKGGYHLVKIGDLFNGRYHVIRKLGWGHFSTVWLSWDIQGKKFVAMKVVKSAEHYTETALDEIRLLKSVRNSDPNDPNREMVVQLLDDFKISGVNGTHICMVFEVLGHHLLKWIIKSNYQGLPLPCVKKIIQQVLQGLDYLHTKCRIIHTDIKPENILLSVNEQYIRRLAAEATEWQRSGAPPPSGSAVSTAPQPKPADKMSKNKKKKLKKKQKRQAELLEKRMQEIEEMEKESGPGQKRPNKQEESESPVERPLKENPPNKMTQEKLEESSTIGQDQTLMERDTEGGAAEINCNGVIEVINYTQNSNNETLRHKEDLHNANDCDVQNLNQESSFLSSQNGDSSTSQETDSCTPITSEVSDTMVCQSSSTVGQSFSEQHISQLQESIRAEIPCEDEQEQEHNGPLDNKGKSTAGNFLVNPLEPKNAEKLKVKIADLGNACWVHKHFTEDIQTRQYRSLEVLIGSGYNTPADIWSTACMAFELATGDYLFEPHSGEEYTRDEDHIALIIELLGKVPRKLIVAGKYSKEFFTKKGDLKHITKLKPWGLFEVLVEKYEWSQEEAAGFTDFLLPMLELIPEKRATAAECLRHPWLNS
Sequence of Cholecystokinin receptor type A (Homo sapiens) (P32238 whole entry, canonical isoform): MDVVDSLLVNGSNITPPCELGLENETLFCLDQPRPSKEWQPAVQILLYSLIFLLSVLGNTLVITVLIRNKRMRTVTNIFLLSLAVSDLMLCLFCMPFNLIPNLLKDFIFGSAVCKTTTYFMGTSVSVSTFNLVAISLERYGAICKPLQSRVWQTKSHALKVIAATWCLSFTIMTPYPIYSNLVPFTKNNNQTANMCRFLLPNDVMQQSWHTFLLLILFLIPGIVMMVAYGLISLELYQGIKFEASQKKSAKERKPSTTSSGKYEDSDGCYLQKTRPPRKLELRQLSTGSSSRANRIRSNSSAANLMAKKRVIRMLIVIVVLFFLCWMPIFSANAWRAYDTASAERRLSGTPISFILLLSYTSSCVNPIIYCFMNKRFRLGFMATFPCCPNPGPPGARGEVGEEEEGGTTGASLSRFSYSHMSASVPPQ
Sequence of Tyrosine-protein kinase BTK (Q06187 whole entry): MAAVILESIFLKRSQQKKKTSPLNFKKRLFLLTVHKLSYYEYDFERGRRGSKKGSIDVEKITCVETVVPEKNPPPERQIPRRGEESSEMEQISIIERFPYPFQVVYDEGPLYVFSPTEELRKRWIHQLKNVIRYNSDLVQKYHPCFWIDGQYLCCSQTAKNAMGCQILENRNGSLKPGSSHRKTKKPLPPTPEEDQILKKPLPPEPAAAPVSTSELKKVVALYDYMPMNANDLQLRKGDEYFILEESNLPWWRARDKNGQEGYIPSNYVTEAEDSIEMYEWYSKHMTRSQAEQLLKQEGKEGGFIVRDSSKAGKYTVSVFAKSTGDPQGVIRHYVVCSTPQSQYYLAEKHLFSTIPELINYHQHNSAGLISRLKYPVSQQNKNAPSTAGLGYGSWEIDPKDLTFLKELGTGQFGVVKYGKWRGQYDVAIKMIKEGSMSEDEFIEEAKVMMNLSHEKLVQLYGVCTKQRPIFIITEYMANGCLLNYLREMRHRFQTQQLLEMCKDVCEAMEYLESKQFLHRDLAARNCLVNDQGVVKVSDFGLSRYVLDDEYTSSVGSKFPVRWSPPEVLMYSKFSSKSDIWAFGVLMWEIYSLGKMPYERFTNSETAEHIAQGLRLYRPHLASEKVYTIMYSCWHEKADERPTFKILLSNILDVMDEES
Sequence of Protein kinase C theta type (Q04759 whole entry, looked up): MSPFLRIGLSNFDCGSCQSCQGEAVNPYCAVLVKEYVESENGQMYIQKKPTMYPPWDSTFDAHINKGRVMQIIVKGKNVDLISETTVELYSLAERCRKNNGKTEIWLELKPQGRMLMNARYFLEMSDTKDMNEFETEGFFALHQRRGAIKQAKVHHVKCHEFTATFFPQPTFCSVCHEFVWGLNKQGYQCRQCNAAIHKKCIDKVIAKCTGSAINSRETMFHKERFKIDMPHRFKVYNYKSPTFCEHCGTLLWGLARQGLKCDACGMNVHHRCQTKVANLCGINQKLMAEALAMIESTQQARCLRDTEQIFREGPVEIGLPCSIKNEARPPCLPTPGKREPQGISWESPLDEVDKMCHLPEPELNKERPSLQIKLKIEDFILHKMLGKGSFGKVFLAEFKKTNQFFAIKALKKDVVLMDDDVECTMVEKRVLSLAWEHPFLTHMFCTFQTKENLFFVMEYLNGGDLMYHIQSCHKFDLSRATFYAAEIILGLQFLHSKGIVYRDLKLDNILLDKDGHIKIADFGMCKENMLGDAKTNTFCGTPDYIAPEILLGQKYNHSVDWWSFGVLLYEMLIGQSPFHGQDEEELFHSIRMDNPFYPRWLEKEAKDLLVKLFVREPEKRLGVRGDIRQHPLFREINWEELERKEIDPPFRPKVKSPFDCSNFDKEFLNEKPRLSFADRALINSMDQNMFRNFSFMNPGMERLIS
Sequence of Dual specificity mitogen-activated protein kinase kinase 2 (Homo sapiens) (P36507 whole entry): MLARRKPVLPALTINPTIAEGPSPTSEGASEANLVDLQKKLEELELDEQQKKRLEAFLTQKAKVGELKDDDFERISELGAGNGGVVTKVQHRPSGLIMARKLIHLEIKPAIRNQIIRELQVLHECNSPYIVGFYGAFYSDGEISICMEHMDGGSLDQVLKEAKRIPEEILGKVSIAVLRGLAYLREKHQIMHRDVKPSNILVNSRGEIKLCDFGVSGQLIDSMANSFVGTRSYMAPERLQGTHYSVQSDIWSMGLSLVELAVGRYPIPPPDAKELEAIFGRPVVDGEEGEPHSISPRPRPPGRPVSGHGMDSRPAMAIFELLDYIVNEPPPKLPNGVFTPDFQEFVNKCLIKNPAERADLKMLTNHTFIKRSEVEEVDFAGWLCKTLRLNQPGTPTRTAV

Compound: COc1cc(Nc2nc(C)cc(-c3cnn4nc(OC)ccc34)n2)cc(C(F)(F)F)c1
- % of control [1]: 77%
- % of control [2]: 100%

Compound: COc1cc(N(C)c2ccnc3ccc(C(F)(F)F)cc23)cc(OC)c1OC
- % binding [3]: 92%

Compound: CC(=O)c1cc(-c2ccccc2OCC2CC2)c2ncccn12
- % of control [4]: 116%

Compound: Nc1cnc(N2CCc3cc(S(=O)(=O)Nc4c(F)cc(Cl)cc4F)cc(N4CCCC4=O)c32)nc1 [TP-020n]
- % of control [5]: 88%
- % of control [6]: 100%

Compound: CC[C@@H]1[C@H](F)C(=O)N[C@@H]1COc1nccc2cc(C(N)=O)c(OC)cc12 [ZIMLOVISERTIB]
- % of inhibition [7]: -2.7%
- % of inhibition [8]: 7.87%

Compound: COCC(=O)NC/C=C/c1ccc2ncnc(Nc3ccc(Oc4ccc(C)nc4)c(C)c3)c2c1 [CP-724714]
- % of control [9]: 100%

Compound: CCC(=O)N1CCN(c2ccc(-n3c(=O)ccc4cnc5ccc(-c6cnc7ccccc7c6)cc5c43)cc2C(F)(F)F)CC1
- % of control [10]: 59%

Compound: Cc1cc([C@@H](C)Nc2ccccc2C(=O)O)c2nc(N3CCOCC3)cc(=O)n2c1 [AZD-6482]
- % of control [11]: 83%

Compound: Cc1ccc(-c2ccc3c(ccc4sc5c(c43)NC[C@@H](C)NC5=O)n2)cn1
- % of inhibition [12]: 88%

Compound: CN(C)CCOc1ccc(-c2nc(-c3ccncc3)c(-c3ccc4c(c3)CC/C4=N\O)[nH]2)cc1
- % of control [13]: 98%

Compound: Cn1cc(-n2cnc3c(NCc4nc5cc(Cl)c(Cl)cc5[nH]4)nc(N4CCOCC4)nc32)cn1
- % of control (SRSF protein kinase 1): 0.97%

Compound: C=CC(=O)Nc1cccc(C(=O)Nc2ccc(Nc3cc(-c4[nH]c(SC)nc4C)ccn3)cc2)c1
- % of control ([14]; at 1 µM): 101%
- % of control ([14]; at 5 µM): 100%
